| melting point [°C] | Compound |
| --- | --- |
| 186 to 188 | O=S(=O)(Nc1cccnc1Nc1ccccc1)c1ccc(Cl)cc1 |
| 96 to 98 | COc1ccc(C(=O)c2ccccn2)cc1 |
| 96 to 97 | C=Cc1c(C(=O)OC)nc(Cl)c(Cl)c1N |
| 231 to 234 | Cc1cc(-c2ccc(O)nc2)cc(C=O)c1N |
| 282 | N#Cc1c(N2CCN(C(=O)c3cccs3)CC2)c2cscc2n(-c2cccnc2)c1=O |
| 156 | CC(C)(C)c1cc(-c2nnc(S(C)(=O)=O)s2)cc(C(C)(C)C)c1O |
| 117 to 120 | CCCCc1nn(-c2cc(NC(=O)c3ccccc3)ccc2C(F)(F)F)c(=O)n1Cc1ccc(-c2ccccc2S(=O)(=O)NC(=O)OC(C)(C)C)cc1F |
| 39 to 40 | Cc1cccc(CCCCCCCCC(=O)O)c1 |
| 250 to 252 | Cn1cc(C2=C(c3cn(CCO)c4ccccc34)C(=O)NC2=O)c2ccccc21 |
| 242 to 244 | O=C(Nc1ccc2[nH]c(=O)oc2c1)C(=O)N1CCC(Oc2ccc(Cl)cc2)CC1 |
| 98 to 100 | OC(Cn1cncn1)(c1ccc(Cl)cn1)c1ccc(Cl)cn1 |
| 112 to 114 | O=C1c2cc(OCc3ccccc3)ccc2OCCC1Oc1ccccc1 (stereo not drawn) |
| 215 to 216 | NC1=NS(=O)N=C1NCCCNc1ccc(Br)cn1 (stereo not drawn) |
| 166 to 168 | Cc1cnc(NC(=O)C(c2ccccc2)c2ccccc2)o1 |
| 208 to 209 | COc1ccc(-c2c(Cl)c(CN3C(=O)CSC3=O)nc3sc4c(c23)CCSC4)cc1 |
| 137 to 138 | Cc1ccccc1Nc1c([N+](=O)[O-])cnc2ccccc12 |
| 194 to 195 | O=C1C(=O)c2ccccc2C2=C1SCC1(CCCCC1)O2 |
| 88 to 90 | CC(=O)OCC1OC(n2cc(C3=C(n4ccnc4)C(=O)N(C)C3=O)c3cccnc32)C(OC(C)=O)C(OC(C)=O)C1OC(C)=O (stereo not drawn) |
| 79 to 80 | CCCCCCCCCCCCCCCc1cc2cc(C(=O)OCCCC)ccc2[nH]1 |
| 138 to 143 | O=C(O)CN(CC(=O)O)Cc1cc(S(=O)(=O)c2ccc(OCc3ccccc3)cc2)cc(CN(CC(=O)O)CC(=O)O)c1O |
| 93 to 94 | CCOc1nn(-c2ccc(C(F)(F)F)cn2)cc1CCCOc1ccccc1CCC(=O)O |
| 88 to 90 | NCC(O)c1cc(C(N)=O)c2[nH]ccc2c1 (stereo not drawn) |
| 214 to 217 | COc1ccc2cc(C(C)=CC(=O)O)cc(F)c2c1 |
| 139 to 140 | Cc1oc(-c2ccco2)nc1COc1ccc(C=O)cn1 |

| melting point [°C] | Compound |
| --- | --- |
| 80 to 83 | CCOC(=O)C(=O)C(C#N)Cc1ccccc1 (stereo not drawn) |
| 175 to 176 | O=C(NCc1ccccc1)c1ccnc(NC(=O)c2ccccc2F)c1 |
| 123 to 125 | CCCN1CC(=O)C(C(=O)OCC)C1=O (stereo not drawn) |
| 69 | O=c1c2ccccc2nnn1CCCCl |
| 85 to 87 | CCC(=C(c1ccc(I)cc1)c1ccc(OCCCCCl)cc1)c1ccccc1 |
| 126 to 128 | Cc1cc(Br)cnc1CCCCN=C(NCCCc1c[nH]cn1)NC(=O)c1ccccc1 |
| 129 to 130 | COc1nc(C(=O)N(C)Cc2cc(C(F)(F)F)cc(C(F)(F)F)c2)c(-c2ccccc2)c2ccccc12 |
| 105 to 106 | Cc1oc(-c2ccccc2)nc1CCOc1ccc(I)cn1 |
| 102 to 104 | CCNC(=O)c1ccc(N2CCN(Cc3cc4c(c(OC(F)F)c3)OC(C)C(=O)N4)CC2)c(Cl)c1 (stereo not drawn) |
| 189 to 190 | CC(=O)Nc1c(C)cc(O)c(C)c1C |
| 169 to 170 | Cc1ccc(-n2nc(C(N)=O)nc2-c2ccccc2)cc1C |
| 176 to 177 | COc1cc2c(cc1O)CCN(C(=O)c1ccccc1OC)C2 |
| 119 to 120 | CC1(C)CC(=O)c2cc(C#N)ccc2O1 |
| 184 to 186 | COC(=O)N1Cc2cc(OC)ccc2C(Cc2c(Cl)cncc2Cl)=N1 |
| 90 | COc1ccc(C(=O)CC(c2cccs2)C(C)(C)[N+](=O)[O-])cc1 (stereo not drawn) |
| 235 | Cc1cc2ncc(Nc3ccc(Br)cc3)nc2cc1C |
| 169 | CCOC(=O)C1=C(CC)Nc2n[nH]cc2C1c1ccccc1OC (stereo not drawn) |
| 96 to 102 | CC(C)c1nc(CCOC2=CCCCCCCCCCC2)n(C)c1Sc1cc(Cl)cc(Cl)c1 |
| 160 to 162 | Cc1c(O)ccc2c1OCC1c3ccccc3OC21 (stereo not drawn) |
| 168 | CCOC(=O)c1cc(=O)c2ccc(NCc3ccccc3)c([N+](=O)[O-])c2o1 |
| 130 | O=C1CCC(=O)N1CC(O)COc1ccccc1 (stereo not drawn) |
| 88 to 90 | N=C(N)c1ccc(C(=O)N[C@@H](Cc2ccc(O)cc2)C(=O)N2CCC(OCC(=O)O)CC2)cc1 |
| 165 | COc1c(Br)c(-c2cc(C(C)C)n(C)n2)cc2oc(=O)c(Cl)c(C)c12 |
| 155 to 157 | C=CCOC(=O)CSc1cccc(NC(=O)NCC(=O)N(CC(=O)OC(C)(C)C)c2ccccc2C(=O)c2ccccc2)c1 |

| melting point [°C] | Compound |
| --- | --- |
| > 260 | Nc1nc(N)nc(-c2ccc(-c3ccc(F)cc3)cc2)n1 |
| 130 to 132 | COc1cc2c(c(Cl)c1Cl)C(=O)C(CCCCl)C2 (stereo not drawn) |
| 59 to 60 | O=C1N(Cc2ccc(C(F)(F)F)o2)c2ccccc2C12COc1cc3c(cc12)OC(F)(F)O3 (stereo not drawn) |
| 134 to 136 | CCCCCCN(Cc1cccnc1)C(Nc1cc(C(C)(C)C)c(O)c(C(C)(C)C)c1)=C1C(=O)OC(C)(C)OC1=O |
| 204 | CC1=NC(NC(=O)Nc2cccc(C)c2)C(=O)N(CC(=O)N2CCCCCC2)c2c(C)cccc21 (stereo not drawn) |
| 173 | CC(C)(OC(=O)Cc1cccc(F)c1)C(=O)c1ccc(S(C)(=O)=O)cc1 |
| 198 to 200 | COc1cccc2c1C(=O)C(=O)N2 |
| 183 to 184 | Cc1cccc2cc3c(=O)n(Cc4ccccn4)cc(C(=O)NCCN(C)C)c3nc12 |
| 115 to 117 | CCOc1ccc(-c2ccc(Cl)nn2)c(OCC(O)CNC(C)(C)C)c1 (stereo not drawn) |
| 121 to 128 | O=C(NCCO)c1cccc(-c2ccc3c(c2)N(Cc2cc(Cl)cc(Cl)c2)CC3)c1 |
| 89 to 91 | CN(C(=O)COc1ccccc1)c1ccc(OC23CC4CC(CC(C4)C2)C3)cc1 |
| 184 | Nc1ccc(OCc2ccccc2)cc1N |
| 149 to 150 | O=C(O)/C(=C/c1ccc(OCc2ccccc2)cc1OCc1ccccc1)NC(=O)c1ccccc1 |
| 120 | COc1ccc2ccc(OC)c3c2c1CCC3CCNC(=O)C1CC1 (stereo not drawn) |
| 66 to 68 | C#CC1(OC(=O)c2ccccc2)C(COC(=O)c2ccc(Cl)cc2)OC(OC(=O)c2ccccc2)C1OC(=O)c1ccccc1 (stereo not drawn) |
| 134 | COc1cc(O)c(CN(CCc2ccc([N+](=O)[O-])cc2)C(=O)OC(C)(C)C)c(OC)c1 |
| 282 to 283 | Nc1c(C(=O)c2ccccc2)cnc2[nH]ncc12 |
| 205 to 206 | CC(C)c1cc(C(C)C)c2c(c1)C1(O)C(=O)c3ccccc3C1(O)O2 (stereo not drawn) |
| 95 to 96 | O=C(O)CCCCCc1nn(-c2ccccc2)c2c1CCC2 |
| 182 to 184 | Cc1c(C=NO)c2ccccc2n1-c1ccc(O)c(F)c1 |
| 138 to 140 | COc1cc(COc2nn(-c3ccccc3)cc2/C=C/P(=O)(O)O)ccc1OCc1nc(-c2ccco2)oc1C |
| 225 to 228 | CN(C)C=Cc1cc(-n2cncn2)ncc1[N+](=O)[O-] |
| 204 to 205 | NS(=O)(=O)c1cc2c(cc1Cl)C(O)N(C1CCN(Cc3cccc(C(F)(F)F)c3)CC1)C2=O (stereo not drawn) |
| 162 to 163 | CC(C)Cn1c(=O)n(C)c(=O)c2c(SCCC(C)O)c(Cc3cccc4ccccc34)sc21 (stereo not drawn) |

| melting point [°C] | Compound |
| --- | --- |
| 220 | CS(=O)(=O)Oc1cnc2cc(C(F)(F)F)ccc2c1O |
| 163 | Cn1cc(-c2cc(-c3cnc4[nH]ccc4c3)ccn2)n(-c2ccc(N3CCNCC3)c(C(F)(F)F)c2)c1=O |
| 165 to 168 | COc1nscc1C(N)=O |
| 200 to 202 | C#CCN1C(=O)CCc2cc(F)c(-n3nc4ccc(Cl)cn4c3=O)cc21 |
| 113 to 114 | Cn1c2ccccc2c2sccc(=O)c21 |
| 143 to 145 | CCCCCCC1c2cc(CBr)ccc2-c2ccc(CBr)cc21 |
| 263 to 266 | Cc1ccc(-c2ccnc3c(C(N)=O)ncn23)cc1 |
| 174 to 176 | OCc1cc2cnc(Cl)nc2n1C1CCCC1 |
| 200 to 201 | CCCC#CC[C@H](C[C@H](N)C(=O)O)C(=O)O |
| 62 to 77 | OCC(OC1CCCCO1)c1ccc2sccc2c1 (single isomer, unassigned; (-)) |
| 135 to 136 | O=C(Nc1ccc(-n2nc(C(F)(F)F)cc2OC(F)F)cc1)c1ccncc1F |
| > 300 | O=C(O)c1cccc2c(=O)c3ccccc3[nH]c12 |
| 58 to 61 | COc1cc2c(c(OC)c1)C(=O)CCC2 |
| 172 | Cc1ccc(-c2cnc([C@H]3CC[C@H](C#N)CC3)nc2)cc1 |
| 155 to 157 | C#Cc1ccc(Nc2c(C(=O)NOCCO)ccc(F)c2F)c(Cl)c1 |
| 182 to 184 | COC(=O)c1nc(-c2ccc(Cl)c(OC)c2F)cc(NC(C)=O)c1C |
| 193 to 195 | CN(Cc1cccc2c1CN(C1CCC(=O)NC1=O)C2=O)C(=O)Nc1cccc(Cl)c1 (stereo not drawn) |
| 203 | CC12CCC(=O)C=C1CCC1C2=CCC2(C)C1CCC2(OC=O)C(=O)CCl (stereo not drawn) |
| 94 to 95 | COC(=O)c1cc(OCc2ccccc2)cc(C(=O)OC)c1 |
| 241 to 243 | O=C(Nc1c[nH]nc1C(=O)NCCC(F)(F)F)c1ccccn1 |
| 121 to 122 | O=C(O)c1cccc2c(=O)cc(-c3cccc(OCc4ccccc4)c3)oc12 |
| 142 | CC(=O)c1c(NC(=O)C(C)(C)C)cccc1C(F)(F)F |
| 265 to 267 | CNc1nc(-c2cccc(NC(=O)c3cccc(O)c3)c2)c2cc(OC)c(OC)cc2n1 |
| 100 to 108 | COc1c2c(c(OC)c(OC)c1OC)CC(CCCCCCC1Cc3c(c(OC)c(OC)c(OC)c3OC)C1)C2 |

| Compound | melting point [°C] |
| --- | --- |
| O=C(Nc1ccc(Cl)c(Cl)c1)ONC1=Nc2ccc([N+](=O)[O-])cc2C(c2ccccc2Cl)=NC1 | 190 to 192 |
| CCCCNc1cc(Cl)c2c(c1)C(c1ccccc1F)=NC(C)(C)C(=O)N2C | 113 to 115 |

From a melting point compilation (Tetko et al.; mined from patent text by program, amines drawn as free bases though some values may be those of a salt)
